Experimental data reported in patent publication US4401660A, “Ester derivatives of 5-O-mycaminosyl tylonolide and method of using same” (Eli Lilly and Company, priority 1981, dated 1983).
Like-named read-outs stand apart in the source and are kept apart here.

What was measured:
[1] = tested on: Haemophilus influenzae Holt; assay: MIC, standard agar-dilution assay (Table II); format: cell-based; parameters: unit not given here; conditions: ampicillin-sensitive strain
Experimental: (§1) The MIC's in Table II were determined by standard agar-dilution assays. The MIC's in Table III were obtained using a conventional broth-dilution microtiter test.

[2] = tested on: Haemophilus influenzae R252; assay: MIC, standard agar-dilution assay (Table II); format: cell-based; parameters: unit not given here; conditions: Haemophilus influenzae R252, ampicillin-resistant strain
Experimental: as §1

[3] = tested on: Staphylococcus aureus S13E; assay: MIC, standard agar-dilution assay (Table II); format: cell-based; parameters: unit not given here
Experimental: as §1

[4] = tested on: Staphylococcus aureus V41; assay: MIC, standard agar-dilution assay (Table II); format: cell-based; parameters: unit not given here; conditions: Staphylococcus aureus V41, penicillin-resistant strain
Experimental: as §1

[5] = tested on: Staphylococcus aureus X1.1; assay: MIC, standard agar-dilution assay (Table II); format: cell-based; parameters: unit not given here
Experimental: as §1

[6] = tested on: Staphylococcus aureus X400; assay: MIC, standard agar-dilution assay (Table II); format: cell-based; parameters: unit not given here; conditions: Staphylococcus aureus X400, methicillin-resistant strain
Experimental: as §1

[7] = tested on: Staphylococcus epidermidis EPI1; assay: MIC, standard agar-dilution assay (Table II); format: cell-based; parameters: unit not given here
Experimental: as §1

[8] = tested on: Staphylococcus epidermidis EPI2; assay: MIC, standard agar-dilution assay (Table II); format: cell-based; parameters: unit not given here
Experimental: as §1

[9] = tested on: Streptococcus Group D 9960; assay: MIC, standard agar-dilution assay (Table II); format: cell-based; parameters: unit not given here
Experimental: as §1

[10] = tested on: Streptococcus Group D X66; assay: MIC, standard agar-dilution assay (Table II); format: cell-based; parameters: unit not given here
Experimental: as §1

[11] = tested on: Streptococcus pneumoniae Park I; assay: MIC, standard agar-dilution assay (Table II); format: cell-based; parameters: unit not given here
Experimental: as §1

[12] = tested on: Streptococcus pyogenes C203; assay: MIC, standard agar-dilution assay (Table II); format: cell-based; parameters: unit not given here
Experimental: as §1

[13] = tested on: Mycoplasma gallisepticum; assay: MIC, broth-dilution microtiter test (Table III); format: cell-based; parameters: unit not given here
Experimental: as §1

[14] = tested on: Mycoplasma hyorhinis; assay: MIC, broth-dilution microtiter test (Table III); format: cell-based; parameters: unit not given here
Experimental: as §1

[15] = tested on: Mycoplasma synoviae; assay: MIC, broth-dilution microtiter test (Table III); format: cell-based; parameters: unit not given here
Experimental: as §1

[16] = tested on: Pasteurella haemolytica 22C; assay: MIC, broth-dilution microtiter test (Table III); format: cell-based; parameters: unit not given here
Experimental: as §1

[17] = tested on: Pasteurella haemolytica 23C; assay: MIC, broth-dilution microtiter test (Table III); format: cell-based; parameters: unit not given here
Experimental: as §1

[18] = tested on: Pasteurella haemolytica 41D; assay: MIC, broth-dilution microtiter test (Table III); format: cell-based; parameters: unit not given here
Experimental: as §1

[19] = tested on: Pasteurella multocida 17E; assay: MIC, broth-dilution microtiter test (Table III); format: cell-based; parameters: unit not given here; conditions: bovine isolate
Experimental: as §1

[20] = tested on: Pasteurella multocida 22A; assay: MIC, broth-dilution microtiter test (Table III); format: cell-based; parameters: unit not given here
Experimental: as §1

[21] = tested on: Pasteurella multocida 60A; assay: MIC, broth-dilution microtiter test (Table III); format: cell-based; parameters: unit not given here; conditions: avian isolate
Experimental: as §1

[22] = tested on: Pasteurella multocida 68C; assay: MIC, broth-dilution microtiter test (Table III); format: cell-based; parameters: unit not given here
Experimental: as §1

[23] = tested on: Staphylococcus aureus; assay: MIC, broth-dilution microtiter test (Table III); format: cell-based; parameters: unit not given here
Experimental: as §1

[24] = tested on: Streptococcus sp. 80; assay: MIC, broth-dilution microtiter test (Table III); format: cell-based; parameters: unit not given here
Experimental: as §1

[25] = tested on: Streptococcus pyogenes C203; assay: ED50 in mice with experimental infections (Table IV); format: in vivo; conditions: Streptococcus pyogenes, doses given 1 and 4 hours postinfection
Experimental: The OMT ester derivatives of this invention have shown in vivo antimicrobial activity against experimental bacterial infections caused by gram-positive bacteria. When two doses of test compound were administered to mice with experimental infections, the activity observed was measured as an ED50 value [effective dose in mg/kg to protect 50% of the test animals: see Warren Wick, et al., J. Bacteriol. 81, 233-235 (1961)].
^a mg/kg × 2; doses given 1 and 4 hours postinfection

[26] = tested on: Pasteurella multocida; assay: Treatment of Pasteurella infections in chicks (Table V); format: in vivo, one-day-old chicks; conditions: Pasteurella multocida, sc, 4 h; 30 mg/kg by subcutaneous injection one and four hours post challenge; read-out: Deaths in Treated Chicks/Number Treated (converted)
Method in brief: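 One-day-old chicks challenged subcutaneously with avian P. multocida (0.1 ml of 10^-3 dilution of 20-hour tryptose broth culture). Esters given at 30 mg/kg subcutaneously at 1 and 4 hours post challenge. Untreated infected controls, ten per group.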

[27] = C203, oral, read-out: ED50, Oral
[28] = C203, sc, subcutaneous, read-out: ED50, Subcutaneous

| SMILES | minimal inhibitory concentration (MIC) [1] | minimal inhibitory concentration (MIC) [2] | minimal inhibitory concentration (MIC) [3] | minimal inhibitory concentration (MIC) [4] | minimal inhibitory concentration (MIC) [6] | minimal inhibitory concentration (MIC) [7] | minimal inhibitory concentration (MIC) [8] | minimal inhibitory concentration (MIC) [9] | minimal inhibitory concentration (MIC) [10] | minimal inhibitory concentration (MIC) [11] | minimal inhibitory concentration (MIC) [12] | minimal inhibitory concentration (MIC) [13] | minimal inhibitory concentration (MIC) [14] | minimal inhibitory concentration (MIC) [15] | minimal inhibitory concentration (MIC) [19] | minimal inhibitory concentration (MIC) [21] | minimal inhibitory concentration (MIC) [23] | minimal inhibitory concentration (MIC) [24] | ED50 [25, 27] | ED50 [25, 28] | other results |
| --- | --- | --- | --- | --- | --- | --- | --- | --- | --- | --- | --- | --- | --- | --- | --- | --- | --- | --- | --- | --- | --- |
| CCC1OC(=O)CC(O)C(C)C(OC2OC(C)C(O)C(N(C)C)C2O)C(CC=O)CC(C)C(=O)C=CC(C)=CC1COC(=O)c1ccccc1 (stereo not drawn) [Compound 26, 23-O-Benzoyl-OMT] | 2 | 2 | 0.25 | 0.25 | 0.5 | 0.25 | 0.5 | 0.25 | 0.25 | 0.06 | 0.125 | < 0.05 | 0.39 | 0.39 | 1.56 | 0.78 | 0.39 | 0.195 | 136 mg/kg | 10.6 mg/kg | minimal inhibitory concentration (MIC) [5]: 0.25; minimal inhibitory concentration (MIC) [16]: 6.25; minimal inhibitory concentration (MIC) [17]: 3.12; minimal inhibitory concentration (MIC) [18]: 6.25; minimal inhibitory concentration (MIC) [20]: 1.56; minimal inhibitory concentration (MIC) [22]: 1.56; mortality at 30 mg/kg [26]: 100% |
| CCC1OC(=O)CC(O)C(C)C(OC2OC(C)C(O)C(N(C)C)C2O)C(CC=O)CC(C)C(=O)C=CC(C)=CC1COC(=O)CC(C)C (stereo not drawn) [Compound 22] | 2 | 4 | 0.25 | 0.25 | 0.5 | 0.25 | 0.25 | 0.5 | 0.5 | 0.125 | 0.25 | < 0.05 | 0.78 | < 0.05 | 1.56 | 3.12 | 0.78 | 0.097 | > 150 mg/kg | 7.5 mg/kg | minimal inhibitory concentration (MIC) [5]: 0.25; mortality at 30 mg/kg [26]: 10% |
| CCC1OC(=O)CC(O)C(C)C(OC2OC(C)C(OC(C)=O)C(N(C)C)C2OC(C)=O)C(CC=O)CC(C)C(=O)C=CC(C)=CC1COC(=O)c1ccccc1 (stereo not drawn) [Compound 6, 23-O-Benzoyl-2',4'-Di-O-acetyl-OMT] | 2 | 2 | 0.25 | 0.25 | 0.25 | 0.25 | 0.5 | 0.25 | 0.25 | 0.06 | 0.125 | < 0.05 | 0.39 | 0.39 | 1.56 | 0.78 | 0.39 | 0.195 | 146 mg/kg | > 30 mg/kg | minimal inhibitory concentration (MIC) [16]: 6.25; minimal inhibitory concentration (MIC) [17]: 3.12; minimal inhibitory concentration (MIC) [18]: 3.12; minimal inhibitory concentration (MIC) [20]: 1.56; minimal inhibitory concentration (MIC) [22]: 0.78; mortality at 30 mg/kg [26]: 80% |
| CCC1OC(=O)CC(O)C(C)C(OC2OC(C)C(O)C(N(C)C)C2OC(C)=O)C(CC=O)CC(C)C(=O)C=CC(C)=CC1COC(=O)Cc1ccccc1 (stereo not drawn) [Compound 28] | 1 | 1 | 0.125 | 0.125 | 0.25 | 0.125 | 0.125 | 0.125 | 0.125 | 0.015 | 0.125 | < 0.05 | 1.56 | < 0.05 | 1.56 | 0.78 | 0.195 | < 0.05 | 155 mg/kg | 6.5 mg/kg | minimal inhibitory concentration (MIC) [5]: 0.125; minimal inhibitory concentration (MIC) [16]: 6.25; minimal inhibitory concentration (MIC) [17]: 3.12; minimal inhibitory concentration (MIC) [18]: 3.12; minimal inhibitory concentration (MIC) [20]: 3.12; minimal inhibitory concentration (MIC) [22]: 0.78; mortality at 30 mg/kg [26]: 80% |
